Reference: patent publication US20100267561A1, “HERBICIDAL PYRIDAZINONE DERIVATIVES” (priority 2007, published 2010)
Where two headings read alike, the source gives them in different places.

Legend:
Format in all cases: in vivo
[1] = system: barnyardgrass (Echinochloa crus-galli); assay: Test A pre-/postemergence plant response; conditions: for pest or weed control at 125 g/ha / pest or weed control at 500 g/ha: Echinochloa crus-galli, 240 h, read-out: Plant response rating, Barnyardgrass; for pest or weed control at 500 g/ha: 500 g ai/ha
Outline: (§1)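 Scores reflect visual plant injury relative to untreated controls on a 0–100 scale, recorded approximately 10 days after simultaneous preemergence soil spraying and postemergence spraying of one- to two-leaf seedlings grown in loam–sand.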

[2] = system: giant foxtail (Setaria faberi); assay: Test A pre-/postemergence plant response; conditions: for pest or weed control at 125 g/ha / pest or weed control at 500 g/ha: Setaria faberi, 240 h, read-out: Plant response rating, Foxtail, Giant; for pest or weed control at 500 g/ha: 500 g ai/ha
Outline: as §1

[3] = system: morningglory (Ipomoea coccinea); assay: Test A pre-/postemergence plant response
Outline: as §1

[4] = system: velvetleaf (Abutilon theophrasti); assay: Test A pre-/postemergence plant response
Outline: as §1

corn (Zea mays) = assay: Test A pre-/postemergence plant response; conditions: for Corn plant response rating (crop injury, 0 = no effect, 100 = complete kill) at 125 g/ha / Corn plant response rating (crop injury, 0 = no effect, 100 = complete kill) at 500 g/ha: Zea mays, 240 h; for Corn plant response rating (crop injury, 0 = no effect, 100 = complete kill) at 500 g/ha: 500 g ai/ha
Outline: as §1

[5] = system: large crabgrass (Digitaria sanguinalis); assay: Test A pre-/postemergence plant response; conditions: for pest or weed control at 125 g/ha / pest or weed control at 500 g/ha: Digitaria sanguinalis, 240 h, read-out: Plant response rating, Crabgrass, Large; for pest or weed control at 500 g/ha: 500 g ai/ha
Outline: as §1

[6] = system: pigweed (Amaranthus retroflexus); assay: Test A pre-/postemergence plant response; conditions: for pest or weed control at 125 g/ha / pest or weed control at 500 g/ha: Amaranthus retroflexus, 240 h, read-out: Plant response rating, Pigweed; for pest or weed control at 500 g/ha: 500 g ai/ha
Outline: as §1

[7] = system: barnyardgrass (Echinochloa crus-galli); assay: Test B flooded paddy test plant response
Outline: (§2)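 Rice, umbrella sedge, ducksalad and barnyardgrass at 2-leaf stage; pots flooded to 3 cm, compounds applied into paddy water, depth held throughout. Greenhouse 13 to 15 days, then visual rating vs untreated controls on 0–100 scale (0 no effect, 100 complete control); dash means no test result.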

[8] = system: ducksalad (Heteranthera limosa); assay: Test B flooded paddy test plant response
Outline: as §2

rice (Oryza sativa) = assay: Test B flooded paddy test plant response
Outline: as §2

[9] = system: umbrella sedge (Cyperus difformis); assay: Test B flooded paddy test plant response
Outline: as §2

[10] = post-emergence, Postemergence, 125 g ai/ha, 0 to 100 scale, 0 no effect, 100 complete control
[11] = post-emergence, Postemergence, 0 to 100 scale, 0 no effect, 100 complete control
[12] = pre-emergence, Preemergence, 125 g ai/ha, 0 to 100 scale (0 no effect, 100 complete control)
[13] = pre-emergence, Preemergence, 0 to 100 scale (0 no effect, 100 complete control)
[14] = Postemergence, 125 g ai/ha, 0 to 100 scale, 0 no effect, 100 complete control
[15] = Postemergence, 500 g ai/ha, 0 to 100 scale, 0 no effect, 100 complete control
[16] = Preemergence, 125 g ai/ha, 0 to 100 scale (0 no effect, 100 complete control)
[17] = Preemergence, 500 g ai/ha, 0 to 100 scale (0 no effect, 100 complete control)
[18] = Postemergence, 31 g ai/ha, 0 to 100 scale (0 no effect, 100 complete control)
[19] = Preemergence, 31 g ai/ha, 0 to 100 scale, 0 is no effect, 100 is complete control
[20] = Flood (flooded paddy test), 62 g ai/ha, scale 0 to 100, 0 no effect, 100 complete control
[21] = Flood (flooded paddy test), 125 g ai/ha, scale 0 to 100, 0 no effect, 100 complete control
[22] = Flood (flooded paddy test), 250 g ai/ha, scale 0 to 100, 0 no effect, 100 complete control
[23] = Flood, 31 g ai/ha, scale 0 to 100

Cc1cn(-c2ccc(Cl)cc2)nc1-c1c(O)cnn(C)c1=O [Compound 30, 4-[1-(4-chlorophenyl)-4-methyl-1H-pyrazol-3-yl]-5-hydroxy-2-methyl-3(2H)-pyridazinone]
pest or weed control at 125 g/ha [1, 10]: 50%
pest or weed control at 500 g/ha [1, 11]: 90%
pest or weed control at 125 g/ha [1, 12]: 100%
pest or weed control at 500 g/ha [1, 13]: 100%
pest or weed control at 125 g/ha [2, 10]: 80%
pest or weed control at 500 g/ha [2, 11]: 90%
pest or weed control at 125 g/ha [2, 12]: 100%
pest or weed control at 500 g/ha [2, 13]: 100%
Plant response rating, Morningglory [3, 14]: 0
Plant response rating, Morningglory [3, 15]: 0
Plant response rating, Morningglory [3, 16]: 0
Plant response rating, Morningglory [3, 17]: 0
Plant response rating, Velvetleaf [4, 14]: 0
Plant response rating, Velvetleaf [4, 15]: 0
Plant response rating, Velvetleaf [4, 16]: 0
Plant response rating, Velvetleaf [4, 17]: 0
Corn plant response rating (crop injury, 0 = no effect, 100 = complete kill) at 125 g/ha (corn (Zea mays); [10]): 0%
Corn plant response rating (crop injury, 0 = no effect, 100 = complete kill) at 500 g/ha (corn (Zea mays); [11]): 70%
Corn plant response rating (crop injury, 0 = no effect, 100 = complete kill) at 125 g/ha (corn (Zea mays); [12]): 0%
Corn plant response rating (crop injury, 0 = no effect, 100 = complete kill) at 500 g/ha (corn (Zea mays); [13]): 70%
pest or weed control at 125 g/ha [5, 10]: 60%
pest or weed control at 500 g/ha [5, 11]: 90%
pest or weed control at 125 g/ha [5, 12]: 100%
pest or weed control at 500 g/ha [5, 13]: 100%
pest or weed control at 125 g/ha [6, 10]: 0%
pest or weed control at 500 g/ha [6, 11]: 0%
pest or weed control at 125 g/ha [6, 12]: 0%
pest or weed control at 500 g/ha [6, 13]: 0%
pest or weed control at 62 g/ha ([7]; Echinochloa crus-galli, Flood (flooded paddy test), 62 g ai/ha, scale 0 to 100, 0 no effect, 100 complete control, read-out: Plant response rating, Barnyardgrass): 0%
pest or weed control at 125 g/ha ([7]; Echinochloa crus-galli, Flood (flooded paddy test), 125 g ai/ha, scale 0 to 100, 0 no effect, 100 complete control, read-out: Plant response rating, Barnyardgrass): 0%
pest or weed control at 250 g/ha ([7]; Echinochloa crus-galli, Flood (flooded paddy test), 250 g ai/ha, scale 0 to 100, 0 no effect, 100 complete control, read-out: Plant response rating, Barnyardgrass): 0%
pest or weed control at 31 g/ha ([7]; Echinochloa crus-galli, Flood, 31 g ai/ha, scale 0 to 100, read-out: Plant response rating, Barnyardgrass): 0%
pest or weed control at 62 g/ha ([8]; Heteranthera limosa, Flood (flooded paddy test), 62 g ai/ha, scale 0 to 100, 0 no effect, 100 complete control, read-out: Plant response rating, Ducksalad): 0%
pest or weed control at 125 g/ha ([8]; Heteranthera limosa, Flood (flooded paddy test), 125 g ai/ha, scale 0 to 100, 0 no effect, 100 complete control, read-out: Plant response rating, Ducksalad): 0%
pest or weed control at 250 g/ha ([8]; Heteranthera limosa, Flood (flooded paddy test), 250 g ai/ha, scale 0 to 100, 0 no effect, 100 complete control, read-out: Plant response rating, Ducksalad): 0%
pest or weed control at 31 g/ha ([8]; Heteranthera limosa, Flood, 31 g ai/ha, scale 0 to 100, read-out: Plant response rating, Ducksalad): 0%
plant injury at 62 g/ha (rice (Oryza sativa); Oryza sativa, Flood (flooded paddy test), 62 g ai/ha, scale 0 to 100, 0 no effect, 100 complete control, read-out: Plant response rating, Rice): 0%
plant injury at 125 g/ha (rice (Oryza sativa); Oryza sativa, Flood (flooded paddy test), 125 g ai/ha, scale 0 to 100, 0 no effect, 100 complete control, read-out: Plant response rating, Rice): 0%
plant injury at 250 g/ha (rice (Oryza sativa); Oryza sativa, Flood (flooded paddy test), 250 g ai/ha, scale 0 to 100, 0 no effect, 100 complete control, read-out: Plant response rating, Rice): 0%
plant injury at 31 g/ha (rice (Oryza sativa); Oryza sativa, Flood, 31 g ai/ha, scale 0 to 100, read-out: Plant response rating, Rice): 0%
pest or weed control at 62 g/ha ([9]; Cyperus difformis, Flood (flooded paddy test), 62 g ai/ha, scale 0 to 100, 0 no effect, 100 complete control, read-out: Plant response rating, Sedge, Umbrella): 0%
pest or weed control at 125 g/ha ([9]; Cyperus difformis, Flood (flooded paddy test), 125 g ai/ha, scale 0 to 100, 0 no effect, 100 complete control, read-out: Plant response rating, Sedge, Umbrella): 0%
pest or weed control at 250 g/ha ([9]; Cyperus difformis, Flood (flooded paddy test), 250 g ai/ha, scale 0 to 100, 0 no effect, 100 complete control, read-out: Plant response rating, Sedge, Umbrella): 0%
pest or weed control at 31 g/ha ([9]; Cyperus difformis, Flood, 31 g ai/ha, scale 0 to 100, read-out: Plant response rating, Sedge, Umbrella): 0%

Cc1cc(-c2ccc(Cl)cc2)nn1-c1c(OS(=O)(=O)c2ccccc2[N+](=O)[O-])cnn(C)c1=O [Compound 51]
Plant response rating, Barnyardgrass [1, 18]: 20
Plant response rating, Barnyardgrass [1, 14]: 80
Plant response rating, Barnyardgrass [1, 19]: 80
Plant response rating, Barnyardgrass [1, 16]: 100
Plant response rating, Foxtail, Giant [2, 18]: 20
Plant response rating, Foxtail, Giant [2, 14]: 70
Plant response rating, Foxtail, Giant [2, 19]: 90
Plant response rating, Foxtail, Giant [2, 16]: 100
Plant response rating, Morningglory [3, 18]: 0
Plant response rating, Morningglory [3, 14]: 0
Plant response rating, Morningglory [3, 19]: 0
Plant response rating, Morningglory [3, 16]: 0
Plant response rating, Velvetleaf [4, 18]: 0
Plant response rating, Velvetleaf [4, 14]: 0
Plant response rating, Velvetleaf [4, 19]: 0
Plant response rating, Velvetleaf [4, 16]: 0
Plant response rating, Corn (corn (Zea mays); [18]): 20
Plant response rating, Corn (corn (Zea mays); [14]): 60
Plant response rating, Corn (corn (Zea mays); [19]): 20
Plant response rating, Corn (corn (Zea mays); [16]): 80
Plant response rating, Crabgrass, Large [5, 18]: 20
Plant response rating, Crabgrass, Large [5, 14]: 70
Plant response rating, Crabgrass, Large [5, 19]: 90
Plant response rating, Crabgrass, Large [5, 16]: 100
Plant response rating, Pigweed [6, 18]: 0
Plant response rating, Pigweed [6, 14]: 0
Plant response rating, Pigweed [6, 16]: 0
Plant response rating, Barnyardgrass [7, 20]: 0
Plant response rating, Barnyardgrass [7, 21]: 10
Plant response rating, Barnyardgrass [7, 22]: 30
Plant response rating, Barnyardgrass [7, 23]: 0
Plant response rating, Ducksalad [8, 20]: 0
Plant response rating, Ducksalad [8, 21]: 0
Plant response rating, Ducksalad [8, 22]: 0
Plant response rating, Ducksalad [8, 23]: 0
Plant response rating, Rice (rice (Oryza sativa); [20]): 0
Plant response rating, Rice (rice (Oryza sativa); [21]): 0
Plant response rating, Rice (rice (Oryza sativa); [22]): 0
Plant response rating, Rice (rice (Oryza sativa); [23]): 0
Plant response rating, Sedge, Umbrella [9, 20]: 40
Plant response rating, Sedge, Umbrella [9, 21]: 60
Plant response rating, Sedge, Umbrella [9, 22]: 70
Plant response rating, Sedge, Umbrella [9, 23]: 0
